According to ChEMBL document CHEMBL1143076, “Polydiscamides B-D from a marine sponge Ircinia sp. as potent human sensory neuron-specific G protein coupled receptor agonists” (J Nat Prod, 2008):

Assay: Agonist activity at human sensory neuron-specific G-protein coupled receptor expressed in HEK293 cells assessed as intracellular calcium mobilization by FLIPR
Type: functional, cell-based

Row | EC50 | SMILES
1 | 1260 nM | CCC(C)(C)[C@H](NC(=O)[C@H](NC(=O)[C@@H]1CCCN1C(=O)[C@H](Cc1ccc(Br)cc1)NC(=O)[C@@H](C)NC=O)C(C)(C)C)C(=O)N[C@H](Cc1c[nH]c2ccccc12)C(=O)N[C@@H](CCCNC(=N)N)C(=O)N[C@H](CS(=O)(=O)O)C(=O)N[C@@H]1C(=O)N(C)[C@@H](CCC(N)=O)C(=O)N[C@H](C(C)C)C(=O)N2CCC[C@H]2C(=O)N[C@H](CC(=O)O)C(=O)O[C@@H]1C [POLYDISCAMIDE B]
2 | 3570 nM | CCC(C)(C)[C@H](NC(=O)[C@H](NC(=O)[C@@H]1CCCN1C(=O)[C@H](Cc1ccc(Br)cc1)NC(=O)[C@@H](C)NC=O)C(C)C)C(=O)N[C@H](Cc1c[nH]c2ccccc12)C(=O)N[C@@H](CCCNC(=N)N)C(=O)N[C@H](CS(=O)(=O)O)C(=O)N[C@@H]1C(=O)N(C)[C@@H](CCC(N)=O)C(=O)N[C@H](C(C)C)C(=O)N2CCC[C@H]2C(=O)N[C@H](CC(=O)O)C(=O)O[C@@H]1C [POLYDISCAMIDE C]
3 | 2800 nM | CC(C)[C@@H](NC(=O)[C@@H]1CCCN1C(=O)[C@H](Cc1ccc(Br)cc1)NC(=O)[C@@H](C)NC=O)C(=O)N[C@H](C(=O)N[C@H](Cc1c[nH]c2ccccc12)C(=O)N[C@@H](CCCNC(=N)N)C(=O)N[C@H](CS(=O)(=O)O)C(=O)N[C@@H]1C(=O)N(C)[C@@H](CCC(N)=O)C(=O)N[C@H](C(C)C)C(=O)N2CCC[C@H]2C(=O)N[C@H](CC(=O)O)C(=O)O[C@@H]1C)C(C)(C)C [POLYDISCAMIDE D]
